Source: ChEMBL document CHEMBL1201862, “PubChem BioAssay data set” (2004)
Activity calls are given as the source filed them. Cut-off read from the data, not from the text of the source: actives have a measured IC50 and inactives only a lower limit.

Tests used:
Format in all cases: functional
Caspase-3 = target: T1, Caspase-3 (Homo sapiens, UniProt P42574);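 note: Dose-response selectivity test against caspase-3 for candidate inhibitors of sentrin-specific proteases (SENPs)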
T1 sequence (P42574 whole entry): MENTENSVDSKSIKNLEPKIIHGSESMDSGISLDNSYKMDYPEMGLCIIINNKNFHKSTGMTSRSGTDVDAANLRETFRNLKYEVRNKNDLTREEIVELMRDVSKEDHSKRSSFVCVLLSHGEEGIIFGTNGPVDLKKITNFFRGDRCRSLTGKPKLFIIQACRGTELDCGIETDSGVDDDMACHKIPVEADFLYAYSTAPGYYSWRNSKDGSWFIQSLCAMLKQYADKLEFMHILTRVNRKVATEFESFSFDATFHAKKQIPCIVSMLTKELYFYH

[1] = target: T2, Sentrin-specific protease 8 (Homo sapiens, UniProt Q96LD8);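 note: luminescence read-out of SENP8 inhibition, dose-response confirmation following an ultra-high-throughput screen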
T2 sequence (Q96LD8 whole entry): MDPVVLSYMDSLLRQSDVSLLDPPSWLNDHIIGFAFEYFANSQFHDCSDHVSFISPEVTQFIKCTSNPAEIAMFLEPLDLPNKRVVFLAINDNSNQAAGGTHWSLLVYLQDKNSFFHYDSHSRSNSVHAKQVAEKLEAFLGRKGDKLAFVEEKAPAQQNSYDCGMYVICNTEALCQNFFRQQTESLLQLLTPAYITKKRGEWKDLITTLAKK

[2] = target: T3, Apoptotic protease-activating factor 1 (Homo sapiens, UniProt O14727)
T3 sequence (O14727 whole entry): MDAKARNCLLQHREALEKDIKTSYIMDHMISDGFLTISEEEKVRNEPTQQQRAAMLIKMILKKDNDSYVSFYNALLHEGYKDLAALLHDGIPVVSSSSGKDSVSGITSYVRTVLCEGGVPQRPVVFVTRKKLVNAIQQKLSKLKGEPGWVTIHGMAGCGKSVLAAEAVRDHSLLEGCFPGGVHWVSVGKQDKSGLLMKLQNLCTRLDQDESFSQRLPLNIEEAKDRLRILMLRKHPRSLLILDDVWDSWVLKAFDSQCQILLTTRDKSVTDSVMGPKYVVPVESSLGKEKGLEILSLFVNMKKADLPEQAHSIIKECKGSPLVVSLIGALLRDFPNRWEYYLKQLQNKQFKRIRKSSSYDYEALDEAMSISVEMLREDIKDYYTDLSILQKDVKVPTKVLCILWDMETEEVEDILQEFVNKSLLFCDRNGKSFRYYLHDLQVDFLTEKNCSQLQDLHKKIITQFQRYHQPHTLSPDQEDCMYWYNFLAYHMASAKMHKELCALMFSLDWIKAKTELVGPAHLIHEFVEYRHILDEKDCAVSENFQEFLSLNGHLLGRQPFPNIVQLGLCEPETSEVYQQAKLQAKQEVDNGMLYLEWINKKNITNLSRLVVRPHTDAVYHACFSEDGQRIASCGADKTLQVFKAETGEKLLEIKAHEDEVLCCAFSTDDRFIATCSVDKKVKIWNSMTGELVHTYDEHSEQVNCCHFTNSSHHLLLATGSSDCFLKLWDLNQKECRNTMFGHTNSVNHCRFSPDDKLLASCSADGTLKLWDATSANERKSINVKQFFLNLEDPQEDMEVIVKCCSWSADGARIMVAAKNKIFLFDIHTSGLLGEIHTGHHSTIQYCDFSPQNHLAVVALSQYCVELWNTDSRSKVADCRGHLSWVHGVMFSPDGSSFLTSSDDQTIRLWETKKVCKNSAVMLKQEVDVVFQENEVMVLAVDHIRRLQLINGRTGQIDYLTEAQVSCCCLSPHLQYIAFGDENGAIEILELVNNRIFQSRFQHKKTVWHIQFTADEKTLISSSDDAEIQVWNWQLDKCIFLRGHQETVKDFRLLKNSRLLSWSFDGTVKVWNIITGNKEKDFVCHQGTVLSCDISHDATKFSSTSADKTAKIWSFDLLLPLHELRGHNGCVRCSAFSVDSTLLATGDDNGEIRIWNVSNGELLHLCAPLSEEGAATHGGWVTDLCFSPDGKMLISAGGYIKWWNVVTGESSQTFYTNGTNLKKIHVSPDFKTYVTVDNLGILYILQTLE

Measured: IC50

Clc1ccc(C2=CSC3=Nc4cccc5cccc(c45)N23)cc1
active: Caspase-3 7.93 µM | [1] 2.04 µM | [2] 17.9 µM
